Assay results as given in patent US8008291B2 (Mimetica Pty Ltd, priority 2008, dated 2011).

Target: T1, human MC5R (hMC5R) (Homo sapiens, UniProt P33032)
T1 construct: purchased Perkin Elmer RBXMC5M400UA
Experiment: Human MC5R radioligand binding assay (membranes, [125I] NDP-MSH displacement)
Conditions: hMC5R binding; tested as trifluoroacetate or hydrochloride salts, or free bases; read-out: MC5R radioligand IC50
Description: Assessments of compound binding to human MC5R (hMC5R) ) by displacement of an ^125I-labeled NDP-MSH receptor ligand peptide were performed essentially as described in the data sheets produced by Perkin Elmer to accompany their frozen hMC5R membranes (Perkin Elmer catalog number RBXMC5M400UA).
[^125I] NDP-MSH: radiolabeled in house and purified by HPLC:
• Na^125I (0.5 mCi, 17.4 Ci/mg) was added to 50 μL sodium phosphate (50 mM, pH7.4) in an eppendorf tube precoated with IODOGEN. After incubation for 10 mins the phosphate buffer containing the iodine was added to NDP-MSH (10 ul at 1 mg/mL) in a separate eppendorf tube. This was incubated for a further 10 mins. The iodinated NDP-MSH was purified by HPLC on a Zorbax SB 300 column using solvent A: 0.05% TFA and solvent B: 90% acetonitrile 0.045% TFA with a linear gradient, 0-67% B over 60 mins. […] Resuspended membranes were kept on ice until they were added to the wells of the plate. Binding Protocol for 400 microassays per vial: • Assays were performed in 96 well polypropylene plates. […] This was incubated for 1 hr at 37° C.

T1 sequence (P33032 whole entry): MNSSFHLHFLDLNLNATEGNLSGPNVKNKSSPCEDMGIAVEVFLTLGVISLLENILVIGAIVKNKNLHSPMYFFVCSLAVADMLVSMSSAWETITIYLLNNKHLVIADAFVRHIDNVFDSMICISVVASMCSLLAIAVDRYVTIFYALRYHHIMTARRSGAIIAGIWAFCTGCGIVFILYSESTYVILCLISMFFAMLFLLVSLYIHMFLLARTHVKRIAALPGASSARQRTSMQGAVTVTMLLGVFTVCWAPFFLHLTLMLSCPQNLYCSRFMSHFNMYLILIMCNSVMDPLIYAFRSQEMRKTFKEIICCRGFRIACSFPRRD

Compound	IC50 [nM]
NCC[C@@H]1N[C@H](CNC(=O)c2ccc3ccccc3c2)CCN(CC(c2ccccc2)c2ccccc2)C1=O [Compound 260, N-(((3S,5S)-3-(2-aminoethyl)-1-(2,2-diphenylethyl)-2-oxo-1,4-diazepan-5-yl)methyl)-2-naphthamide]	< 1000
N=C(N)NCCC[C@@H]1N[C@H](CNC(=O)c2ccc3ccccc3c2)CCN(Cc2cccc3ccccc23)C1=O [Compound 263, N-(((3S,5S)-3-(3-guanidinopropyl)-1-(naphthalen-1-ylmethyl)-2-oxo-1,4-diazepan-5-yl)methyl)-2-naphthamide]	< 10000
N=C(N)NCCC[C@@H]1N[C@H](CNC(=O)c2ccc3ccccc3c2)CCN(CCc2ccc3ccccc3c2)C1=O [Compound 264, N-(((3S,5S)-3-(3-guanidinopropyl)-1-(2-(naphthalen-2-yl)ethyl)-2-oxo-1,4-diazepan-5-yl)methyl)-2-naphthamide]	< 10000
CC(=O)N[C@H](CN1CC[C@@H](CNC(=O)c2ccc3ccccc3c2)N[C@@H](CCCNC(=N)N)C1=O)c1ccccc1 [Compound 265, N-(((3S,5S)-1-((S)-2-acetamido-2-phenylethyl)-3-(3-guanidinopropyl)-2-oxo-1,4-diazepan-5-yl)methyl)-2-naphthamide]	< 10000
N=C(N)NCCC[C@@H]1N[C@H](CNC(=O)c2ccc3ccccc3c2)CCN(C[C@@H](NC(=O)C2CCC2)c2ccccc2)C1=O [Compound 269, N-(((3S,5S)-1-((S)-2-(cyclobutanecarboxamido)-2-phenylethyl)-3-(3-guanidinopropyl)-2-oxo-1,4-diazepan-5-yl)methyl)-2-naphthamide]	< 1000
N=C(N)NCCC[C@@H]1N[C@H](CNC(=O)c2ccc3ccccc3c2)CCN(C[C@@H](NC(=O)C2CCCCC2)c2ccccc2)C1=O [Compound 270, N-(((3S,5S)-1-((S)-2-(cyclohexanecarboxamido)-2-phenylethyl)-3-(3-guanidinopropyl)-2-oxo-1,4-diazepan-5-yl)methyl)-2-naphthamide]	< 10000
NC[C@@H]1N[C@H](CNC(=O)c2ccc3ccccc3c2)CCN(CC(c2ccccc2)c2ccccc2)C1=O [Compound 271, N-(((3S,5S)-3-(aminomethyl)-1-(2,2-diphenylethyl)-2-oxo-1,4-diazepan-5-yl)methyl)-2-naphthamide]	< 1000

Further lines, results first:

IC50 [nM]	Compound
< 100	O=C(/C=C/c1ccc(Cl)cc1)NC[C@@H]1CCN(CC(c2ccccc2)c2ccccc2)C(=O)[C@H](CCCN2CCCC2)N1 [Compound 258, (E)-3-(4-chlorophenyl)-N-(((3S,5S)-1-(2,2-diphenylethyl)-2-oxo-3-(3-(pyrrolidin-1-yl)propyl)-1,4-diazepan-5-yl)methyl)acrylamide]
< 100	O=C(NC[C@@H]1CCN(CC(c2ccccc2)c2ccccc2)C(=O)[C@H](CCCN2CCCC2)N1)c1ccc2ccccc2c1 [Compound 261, N-(((3S,5S)-1-(2,2-diphenylethyl)-2-oxo-3-(3-(pyrrolidin-1-yl)propyl)-1,4-diazepan-5-yl)methyl)-2-naphthamide]
< 100	O=C(NC[C@@H]1CCN(CC(c2ccccc2)c2ccccc2)C(=O)[C@H](CCCN2CCC2)N1)c1ccc2ccccc2c1 [Compound 262, N-(((3S,5S)-3-(3-(azetidin-1-yl)propyl)-1-(2,2-diphenylethyl)-2-oxo-1,4-diazepan-5-yl)methyl)-2-naphthamide]
< 100	O=C(C=Cc1ccccc1)NC[C@@H]1CCN(CC(c2ccccc2)c2ccccc2)C(=O)[C@H](CCCN2CCCCC2)N1 [Compound 266, N-(((3S,5S)-1-(2,2-diphenylethyl)-2-oxo-3-(3-(piperidin-1-yl)propyl)-1,4-diazepan-5-yl)methyl)cinnamamide]
< 100	O=C(NC[C@@H]1CCN(CC(c2ccccc2)c2ccccc2)C(=O)[C@H](CN2CCCCC2)N1)c1ccc2ccccc2c1 [Compound 275, N-(((3S,5S)-1-(2,2-diphenylethyl)-2-oxo-3-(piperidin-1-ylmethyl)-1,4-diazepan-5-yl)methyl)-2-naphthamide]
